From patent publication US20260272923A1, “NONSENSE MEDIATED DECAY INHIBITOR COMPOUNDS” (The Johns Hopkins University, priority 2023, published 2026) come the findings set out here.

One series concerns NCI-H358 and LS180 cells. In words: MHC class I HLA presentation of mutant specific peptides by quantitative HPLC-Mass Spectrometry. The format is cell-based. The following applies: 24 hours in-vitro, pan-HLA immunoprecipitation. As to the method:
Downregulating mutated genes with frame shifts via NMD is one mechanism employed by cancer cells to avoid immune surveillance. To confirm the small molecule could alter the immune landscape of a tumor, cell surface presentation of known mutant proteins was assessed in NCI-H358 and LS180 cells. Cells were treated in-vitro for 24 hours with DMSO or the compound of Formula I in duplicate, cross linked and immunoprecipitated with pan-HLA antibodies to obtain cell surface MHC presented peptides. 187 mutation specific peptides were initially identified that could be potentially presented by using the union of NetMHC and Predictor of Immunogenic Epitopes (PRIME) predictions. These predictions were tested by performing HPLC Mass Spectromety (MS) on cells that were treated in-vitro for 24 hours with DMSO or the compound of Formula I, cross linked and immunoprecipitated with pan-HLA antibodies to obtain cell surface MHC presented peptides. Based on those results, heavy isotope labeled peptides were designed for 14 peptides from NCI-H358, and 24 peptides from LS180 cells with high confidence of MS detection. These heavy labeled peptides were then used as internal standard to perform quantitative HPLC-Mass Spectrometry. […] This is consistent with re-expression of mutant protein shown previously by western blot (FIGS. 3C and 4D). […]

For a further series, the system named is phosphorylated UPF1. Nature of the series: Phospho-UPF1 specific western blot. It counts as cell-based. The following applies: three different cell lines. As to the method:
(§1) Analyzing a wider set of 21 NMD sensitive genes from the RNA-Seq analysis in LS180 confirmed that LY3023414 and SMG1 specific inhibitor increase the same 18 genes with a greater than 80% re-expression rate, in both cell lines. […] As SMG1 inhibition is an off target effect for LY3023414, the concentrations used in this study may result in inhibition of a number of different kinases.
(§2) To confirm disruption of downstream signaling of SMG1, a western blot was performed with phosphorylation specific antibodies for UPF1.
A general note: A western blot detects proteins with antibodies after separation by electrophoresis.

The nature of series [1]: Physical properties related to solubility. It counts as physicochemical. The settings on record: compared with previously made SMG1 specific inhibitors.
The test system of a further series is LLC (Lewis Lung Cancer). In words: Syngeneic LLC tumor mouse model. It counts as in vivo, mice. The text has this:
Murine RENCA (renal) and LLC (Lewis Lung Cancer) cell lines were chosen as they harbor a large number of out of frame indel mutations based on whole exome DNA sequencing (WES) (Table SX-RENCA and LLC mutations). It was confirmed that treatment of these cell lines could stop NMD mediated repression of mutant RNA, and induced expression of exogenous genes controlled by NMD by real time PCR. […]

The target of a further series is SMG1 protein (Homo sapiens, UniProt Q96Q15). In words: Kinativ assay. The format is binding. The settings on record: 100 nM run in duplicate.
SMG1 protein, sequence (Q96Q15 whole entry): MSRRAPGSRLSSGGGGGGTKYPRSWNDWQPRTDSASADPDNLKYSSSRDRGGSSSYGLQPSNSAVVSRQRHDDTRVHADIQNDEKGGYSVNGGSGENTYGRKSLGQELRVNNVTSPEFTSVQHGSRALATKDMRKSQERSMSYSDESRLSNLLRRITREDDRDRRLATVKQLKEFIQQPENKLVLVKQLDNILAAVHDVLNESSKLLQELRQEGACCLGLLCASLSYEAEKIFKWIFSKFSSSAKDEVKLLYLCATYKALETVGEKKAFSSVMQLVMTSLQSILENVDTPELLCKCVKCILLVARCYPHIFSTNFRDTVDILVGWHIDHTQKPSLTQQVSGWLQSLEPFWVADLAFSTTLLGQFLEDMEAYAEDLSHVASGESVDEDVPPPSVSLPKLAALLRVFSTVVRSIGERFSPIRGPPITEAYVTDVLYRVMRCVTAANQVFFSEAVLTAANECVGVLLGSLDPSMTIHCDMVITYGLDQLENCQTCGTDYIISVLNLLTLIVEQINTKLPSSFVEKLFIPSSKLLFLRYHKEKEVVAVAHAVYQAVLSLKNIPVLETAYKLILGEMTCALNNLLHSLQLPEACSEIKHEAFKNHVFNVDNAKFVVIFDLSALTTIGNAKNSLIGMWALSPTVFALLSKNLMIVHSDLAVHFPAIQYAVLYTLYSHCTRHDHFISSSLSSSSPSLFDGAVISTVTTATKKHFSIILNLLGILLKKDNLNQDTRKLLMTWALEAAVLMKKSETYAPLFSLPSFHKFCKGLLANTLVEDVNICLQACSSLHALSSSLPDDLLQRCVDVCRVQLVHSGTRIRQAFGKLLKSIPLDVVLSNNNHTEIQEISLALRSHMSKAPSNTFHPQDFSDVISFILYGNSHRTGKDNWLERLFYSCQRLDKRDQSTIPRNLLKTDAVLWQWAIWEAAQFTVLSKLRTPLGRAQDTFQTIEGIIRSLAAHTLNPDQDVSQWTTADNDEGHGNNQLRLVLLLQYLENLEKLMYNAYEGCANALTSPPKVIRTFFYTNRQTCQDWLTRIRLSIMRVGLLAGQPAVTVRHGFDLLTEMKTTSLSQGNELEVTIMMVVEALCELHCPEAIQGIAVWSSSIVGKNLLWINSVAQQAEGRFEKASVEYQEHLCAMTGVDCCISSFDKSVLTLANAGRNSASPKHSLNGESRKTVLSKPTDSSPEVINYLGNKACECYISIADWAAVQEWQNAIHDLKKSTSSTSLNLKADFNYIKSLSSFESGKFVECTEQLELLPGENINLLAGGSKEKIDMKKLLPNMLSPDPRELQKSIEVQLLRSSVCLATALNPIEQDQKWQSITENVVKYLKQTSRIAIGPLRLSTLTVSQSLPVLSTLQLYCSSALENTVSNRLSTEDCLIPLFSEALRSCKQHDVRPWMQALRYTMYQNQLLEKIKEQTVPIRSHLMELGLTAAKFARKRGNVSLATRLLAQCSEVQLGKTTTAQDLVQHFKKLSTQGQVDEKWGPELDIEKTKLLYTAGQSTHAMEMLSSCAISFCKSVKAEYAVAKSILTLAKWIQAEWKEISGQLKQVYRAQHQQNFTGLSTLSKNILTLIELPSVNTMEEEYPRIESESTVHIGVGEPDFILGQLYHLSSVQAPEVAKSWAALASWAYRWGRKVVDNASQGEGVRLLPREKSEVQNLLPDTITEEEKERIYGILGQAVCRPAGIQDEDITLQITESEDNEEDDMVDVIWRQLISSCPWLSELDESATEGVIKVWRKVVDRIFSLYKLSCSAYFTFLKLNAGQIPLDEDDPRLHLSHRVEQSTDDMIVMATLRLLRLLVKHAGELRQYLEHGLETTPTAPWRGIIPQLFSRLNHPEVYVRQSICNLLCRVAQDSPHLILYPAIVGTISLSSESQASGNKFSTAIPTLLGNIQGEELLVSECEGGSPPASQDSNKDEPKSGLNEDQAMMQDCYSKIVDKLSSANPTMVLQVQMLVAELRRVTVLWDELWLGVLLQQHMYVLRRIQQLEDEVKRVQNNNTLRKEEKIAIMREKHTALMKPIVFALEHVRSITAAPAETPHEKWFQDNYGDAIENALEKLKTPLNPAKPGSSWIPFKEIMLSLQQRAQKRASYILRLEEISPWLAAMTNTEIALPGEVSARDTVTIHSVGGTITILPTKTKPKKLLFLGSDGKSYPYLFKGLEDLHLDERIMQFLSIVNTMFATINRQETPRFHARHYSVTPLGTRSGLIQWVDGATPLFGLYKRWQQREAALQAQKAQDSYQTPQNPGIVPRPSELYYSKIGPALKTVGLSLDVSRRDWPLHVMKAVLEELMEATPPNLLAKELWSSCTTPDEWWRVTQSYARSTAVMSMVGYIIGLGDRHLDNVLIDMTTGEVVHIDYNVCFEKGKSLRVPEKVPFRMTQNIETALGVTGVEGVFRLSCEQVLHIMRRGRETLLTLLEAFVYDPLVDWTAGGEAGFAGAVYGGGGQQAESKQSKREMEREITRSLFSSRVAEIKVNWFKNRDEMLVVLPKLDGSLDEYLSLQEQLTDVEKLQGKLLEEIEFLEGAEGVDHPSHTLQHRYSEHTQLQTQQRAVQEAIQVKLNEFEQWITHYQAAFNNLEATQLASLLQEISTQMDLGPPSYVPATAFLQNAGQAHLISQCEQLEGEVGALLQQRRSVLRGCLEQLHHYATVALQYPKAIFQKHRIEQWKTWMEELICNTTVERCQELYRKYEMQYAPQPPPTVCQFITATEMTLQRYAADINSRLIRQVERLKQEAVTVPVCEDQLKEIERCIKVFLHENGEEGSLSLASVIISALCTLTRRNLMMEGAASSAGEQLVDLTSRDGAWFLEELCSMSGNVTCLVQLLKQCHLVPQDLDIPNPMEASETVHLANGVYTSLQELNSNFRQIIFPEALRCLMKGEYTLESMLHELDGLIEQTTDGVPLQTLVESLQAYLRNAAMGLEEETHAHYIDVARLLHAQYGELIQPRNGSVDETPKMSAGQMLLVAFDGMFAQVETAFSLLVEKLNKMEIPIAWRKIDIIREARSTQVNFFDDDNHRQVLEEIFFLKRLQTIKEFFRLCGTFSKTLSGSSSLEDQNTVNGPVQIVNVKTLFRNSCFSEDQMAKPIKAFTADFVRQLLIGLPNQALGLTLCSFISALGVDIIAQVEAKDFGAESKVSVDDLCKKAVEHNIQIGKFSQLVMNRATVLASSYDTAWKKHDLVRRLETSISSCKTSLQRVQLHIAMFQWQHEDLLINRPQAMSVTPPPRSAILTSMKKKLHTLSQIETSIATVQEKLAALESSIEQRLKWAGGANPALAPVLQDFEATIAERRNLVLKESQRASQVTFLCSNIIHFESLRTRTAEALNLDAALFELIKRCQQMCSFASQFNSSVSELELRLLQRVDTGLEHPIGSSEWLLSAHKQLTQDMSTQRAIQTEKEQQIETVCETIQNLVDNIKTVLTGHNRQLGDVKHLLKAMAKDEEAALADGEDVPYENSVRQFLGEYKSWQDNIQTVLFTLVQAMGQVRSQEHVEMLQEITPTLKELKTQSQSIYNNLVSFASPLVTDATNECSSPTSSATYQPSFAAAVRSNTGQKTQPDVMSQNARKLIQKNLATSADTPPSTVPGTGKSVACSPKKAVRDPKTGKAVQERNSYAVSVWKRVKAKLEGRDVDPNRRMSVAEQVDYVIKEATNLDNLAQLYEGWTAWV
In series [2] the test system is NMD targeted mutant protein (EXOC1, SPTAN1). Nature of the series: Western blot of mutant proteins in NCI-H358 and LS180 cells. It counts as cell-based. The following applies: NCI-H358 and LS180.
Text: (§3) It was next sought to evaluate whether LY3023414 could relieve repression of indel containing transcripts in cancer cells. The microsatellite stable NCI-H358 and microsatellite instable LS180 lung and colorectal cancer cell lines were chosen respectively. Nearly 40% of heterozygous indel and 25% of nonsense single base-pair mutation containing genes show increased expression of their mutant allele when treated with LY3023414 when evaluated by RNA sequencing (FIG. 2A). […] Heterozygous single nucleotide polymorphism (SNP) Ring Finger Protein 43 (RNF43) and drosha ribonuclease […] (DROSHA) served as controls, and allele ratios remain unchanged with treatment (FIG. 2B). To investigate for changes at the protein level, NCI-H358 cells were treated for 24 hours with either LY3023414 or DMSO.
as §1, §2

The subject of the next series is RENCA (renal). In words: Syngeneic RENCA tumor mouse model. It counts as in vivo, mice. As to the method:
Confident NMD inhibition with the compound of Formula I was leading to in-vivo changes to the tumor and its immune environment and it was evaluated whether these alterations could be taken advantage of in an immune competent system. Murine RENCA (renal) and LLC (Lewis Lung Cancer) cell lines were chosen as they harbor a large number of out of frame indel mutations based on whole exome DNA sequencing (WES) (Table SX-RENCA and LLC mutations). It was confirmed that treatment of these cell lines could stop NMD mediated repression of mutant RNA, and induced expression of exogenous genes controlled by NMD by real time PCR. Cells were placed in the mammary fat pad of C57BL/6N (LLC also known as LL2) and BALB/c (RENCA) mice, randomly sorted animals after tumors became palpable ensuring to balance the tumor size of each group, and then treated with vehicle or the compound of Formula I (FIG. 6A).

For another series, the system named is NCI-H716 and NCI-2228. In words: Interferon gamma ELISA in co-culture with human CD8+ T-cells and TP53-CD3 bispecific antibody. It counts as cell-based. For orientation: ELISA stands for enzyme-linked immunosorbent assay.
Series [3] concerns nonsense mediated decay (NMD). In words: NCI-H358 and LS180 xenograft tumors in NOD-SCID mice, mutant RNA transcripts and tolerability. It counts as in vivo.
The subject of a further series is melanoma line B16-F10. In words: Syngeneic B16-F10 melanoma model. It counts as in vivo.
Series [4] relates to nonsense mediated decay (NMD). Nature of the series: Targeted RNA sequencing of heterozygous indel mutations in NCI-H358 and LS180 cells. It counts as cell-based. The following applies: NCI-H358 and LS180 cells treated in-vitro.
Text: as §3, §1, §2

Series [5] deals with NCI-H716 and NCI-2228 cell lines with and without HLA-A24 expression. In words: Luciferase cell killing co-culture assay. It counts as cell-based. The following applies: with human CD8+ T-cells and bispecific antibody. As to the method: To determine whether this relief of repression is targetable, a bispecific antibody targeting wild type TP53 and CD3 was employed. […] To assess if these novel antigens could be utilized for immune driven cell specific killing, NCI-H716 and NCI-2228 cell lines with and without HLA-A24 expression were labeled with luciferase. […] To establish this effect remained in-vivo, NCI-H716 cells expressing HLA-A24 and luciferase were placed orthotopically in NSG mice. Tumor size was measured by luciferase readings via bioluminescence imaging (BLI).

Regarding `CNC(=O)Nc1ccc(-c2cc(-c3ccnc(Nc4ccc(Cl)c(S(=O)(=O)N5CCNCC5)c4)n3)ccn2)cc1` [compound of Formula I], in the series on NCI-H358 and LS180 cells, the “cell surface MHC presentation of mutant specific neoantigen” value was “presence of a neoantigen specific to the mutant alleles of two genes in NCI-H358 and two other genes in LS180 cells”. Moreover, the “amount of phosphorylated UPF1” value in the series on phosphorylated UPF1 was “strongly decreased the amount of phosphorylated UPF1”. Besides, in series [1], the “physical properties related to solubility” value is given as “more desirable physical properties related to solubility”. The weight loss entry with LLC (Lewis Lung Cancer) (C57BL/6N background) is on record as “No weight loss”; in the series with RENCA (renal) (BALB/c background, within tolerable limits), “Some weight loss”. Moreover, the tumor growth entry is “Significant slowing of tumor growth” in the series on LLC (Lewis Lung Cancer) (C57BL/6N mice, 30 mg/kg) and “Significant slowing of tumor growth” in the series on RENCA (renal) (BALB/c mice, 20 mg/kg). The “tumor growth in immunosuppressed mice” value in the series on LLC (Lewis Lung Cancer) (immunodeficient C57BL/6N SCID mice) and with RENCA (renal) (immunodeficient NSG (BALB/c) mice) was “minimal or no difference in cell growth” throughout. Further, at SMG1 protein, the “specificity for SMG1 over other kinases” value was “maintains high specificity for SMG1 protein over other kinases”. In addition, the “mutant protein expression (western blot)” value in series [2] is listed as “induce expression of the NMD targeted mutant protein”. In addition, the interferon gamma release result in the series on NCI-H716 and NCI-2228 (with bispecific antibody and human CD8+ T-cells) is given as “increase in interferon gamma release”. Also, the interferon gamma levels entry with NCI-H716 and NCI-2228 (without bispecific antibody) is reported as “no change in interferon gamma levels”. Moreover, in series [3] (doses up to 50 mg/kg), the “toxicity related behavior (e.g., hunching, lethargy)” value is given as “did not show any toxicity related behavior”. Also, the “mutant transcript levels in tumors relative to untreated mice” value in series [3] (intraperitoneal (IP)) is reported as “increases in mutant transcript levels”. The tumor volume entry with melanoma line B16-F10 is “showed a change in tumor volume”. In series [4], the “bioactive concentration range (dose response curves)” value is given as “bioactive in the nanomolar range”. The cell killing entry in series [5] is “cell killing only in cells with HLA-A24 present”.
